Read-outs that look alike come from different tables or passages of the source.
Legend:
[1] = system: LPS-induced lung inflammation; assay: LPS-induced lung inflammation in mice (RT-qPCR of lung transcripts); type: in vivo, C57BL/6J mice; settings: male mice, 50 mg/kg i.p. 1 h before and 8 h after i.n. LPS 10 μg/mouse, 24 h
Description: FIG. 5: Effects of clofoctol treatment on LPS-induced lung inflammation. Male C57BL/6J mice were treated i.p. with clofoctol (50 mg/kg) or vehicle 1 h before and 8 h after i.n. inoculation of LPS (10 μg/mouse) or PBS. Animals were sacrificed 24 h after LPS inoculation. mRNA copy numbers of genes were quantified by RT-qPCR. Data are expressed as fold change over average gene expression in PBS-treated animals. Results are expressed as the mean±SD (n=6). Significant differences were determined using the Mann-Whitney U test (**p<0.01).
C57BL/6 mice were inoculated by the intra-nasal route with LPS (Escherichia coli 0111:B4) at 10 μg/mouse. Clofoctol was injected i.p. 1 h before and 8 h after LPS administration. Mice were sacrificed 24 hrs after LPS inoculation.

[2] = system: IAV H1N1 A/California/04/2009 (pdm09); assay: IAV infection in mice: viral load, lung inflammation, pathology; type: in vivo, C57BL/6J mice; settings: 50 mg/kg i.p.
[3] = system: PMA-differentiated THP-1 macrophages; assay: LPS-induced cytokine expression in PMA-differentiated THP-1 macrophages (RT-qPCR and ELISA); type: cell-based, human; settings: clofoctol 1 hour prior to LPS 100 ng/mL
Description: FIG. 4: Effects of clofoctol treatment on LPS-induced cytokine mRNA expression by PMA-differentiated THP-1 macrophages. a, b, c and d) mRNA expression of MCP1, TNFα, IL-6 and IL-1β were quantified by RT-qPCR. Data are expressed as a fold-increase over the mean gene expression level in solvent control wells. (mean+/−SD from 3 experiments in duplicate). Significant differences were determined using the one-way ANOVA corrected for Dunnett's multiple comparisons test (**p<0.01; ***p<0.001, ****p<0.0001). ELISA of MCP1, TNFα and IL-6 (e, f and g) from supernatant of THP-1 cells pre-treated or not with Clofoctol or Dexamethasone and stimulated with LPS during 24 h. Results are expressed as the concentration of cytokine in pg/mL. (mean from one experiment in duplicate).
THP-1 designates a spontaneously immortalized monocyte-like cell line, derived from the peripheral blood of a childhood case of acute monocytic leukemia. Cells were cultivated in RPMI with HEPES without Glutamine complemented with 2 mM Glutamine, 10% FBS and 1% Penicillin/streptomycin and incubated at 37° C.-5% CO2. THP1 cells were used from passage 7 until passage 14 and they were negative for mycoplasma contamination, which was assessed with MycoAlert™ Mycoplasma Detection Kit (Lonza-Basel, Switzerland). […] In THP1, The levels of human cytokines were measured after 24 h of stimulation in the collected supernatants with human CCL2/MCP-1, IL-6 and TNF-α Duoset ELISA (R&D systems, Minneapolis, MN) according to the manufacturer's protocols.
Total RNA was extracted with NucleoSpin® RNA kit (Macherey-Nagel, Hoerdt, Germany). […] Relative quantification of MCP1, TNF-α, IL-6 and IL-1β was performed using the gene coding glyceraldehyde 3-phosphate dehydrogenase (GAPDH). Relative mRNA levels (2-ΔΔCt) were determined by comparing (a) the PCR cycle thresholds (Ct) for the gene of interest and the house keeping gene GAPDH (ΔCt) and (b) ΔCt values for treated and control groups (ΔΔCt). Data are expressed as a fold-increase over the mean gene expression level in solvent control wells.

MPI cells = assay: LPS-induced cytokine production by alveolar macrophage MPI cells (ELISA); type: cell-based, C57BL/6J mouse; settings: clofoctol added 30 minutes prior to LPS 10 ng/ml, 24 h, supernatant ELISA
Description: FIG. 3: Effects of clofoctol treatment on LPS-induced cytokine production by alveolar macrophages. ELISA of IL-1β, IL-12p40, TNFα, and MCP-1 from supernatant of MPI cells pre-treated or not with clofoctol and stimulated or not with LPS during 24 h. The percentage cell viability post treatment is indicated. Significant differences were determined using the two-way ANOVA corrected for Dunnett's multiple comparisons test (viability test) or one-way ANOVA corrected for Dunnett's multiple comparisons test (n=7-11) (**p<0.01; ***p<0.001, ****p<0.0001).
Max Plank Institute (MPI) cells are self-renewing and non-transformed cells originated from fetal liver of C57BL/6J mouse. MPI cells were used as a model of alveolar macrophages, due to their closer profile (Fejer et al., 2013). Cells were cultivated in RPMI Glutamax with 10% FBS, 1% Penicillin/streptomycin, and 30 ng/mL GM-CSF and incubated on 37° ° C.5% CO2. MPI cells were used from passage 6 until passage 30 and they were negative for mycoplasma contamination, which was assessed with MycoAlert™ Mycoplasma Detection Kit (Lonza-Basel, Switzerland). […] Cytokine production was measured from the supernatant of cells after 24 h of stimulation, accordingly to protocol's manufactures for IL-1β, IL-12p40, TNF-α, and MCP-1 (R&D Systems—Minneapolis, MN). […]

SARS-CoV-2 [4] = assay: In vitro antiviral activity (IC95) of clofoctol; type: cell-based
SARS-COV-2 [5] = type: in vivo, K18-hACE2 transgenic C57BL/6J mice
[6] = system: IAV H1N1 A/California/04/2009 (pdm09); assay: Long-term sequela (fibrosis) imposed by IAV infection in mice; settings: 50 mg/kg i.p. once a day for 4 days
[7] = female C57BL/6 mice, single i.p. dose 62.5 mg/kg
[8] = female mice, day 4 post-infection

CC(C)(C)CC(C)(C)c1ccc(O)c(Cc2ccc(Cl)cc2Cl)c1 [clofoctol, 2-[(2,4-dichlorophenyl)methyl]-4-(2,4,4-trimethylpentan-2-yl)phenol]
expression of transcripts encoding IL-6, TNFα, IL-1β, IFN-γ, IL12p40 and CCL2 in lungs [1]: markedly reduced | IL-6 and IL-12p40 production in lungs ([2]; ELISA, 4 dpi): Reduced | transcript expression of interferon-stimulated genes Mx1, ISG15 and Cxcl10 ([2]; RT-qPCR): reduced | viral RNA yields by RT-qPCR ([2]; day 2 and 4 post-infection): trend in reduced viral load | infectious viral load in the lungs ([2]; day 2 and day 4 post-infection, titration on MDCK cells): slightly reduced | expression of transcript encoding TNFα in lungs ([2]; day 2 post-infection, RT-qPCR): to a lower extent | expression of transcripts encoding IL-6, IL-12p40, Ccl2, IFN-γ in lungs ([2]; day 2 post-infection, RT-qPCR): reduced | lung pathology (histology, inflammation scoring) ([2]; day 4 post-infection, hematoxylin and eosin): only a minimal interstitial inflammation | expression of MCP1 and IL-6 genes ([3]; 5 hours, RT-qPCR): significantly reducing | MCP1 and IL-6 protein in supernatant ([3]; 24 hours, ELISA): significantly reducing | IL1-β and TNF-α expression/production ([3]; RT-qPCR (5 hours) and TNFα ELISA (24 hours)): not significantly modulating | production of inflammatory cytokines IL-1β, IL-12p40 and TNF-α (MPI cells): inhibited, in a dose dependent manner | clofoctol concentration in the lungs (62.5 mg/kg i.p. twice daily during two days, 1 h after the fourth administration): 67 µM | plasma concentration relative to lung concentration [7]: seven times lower | time lung concentration remained above this level (61 μM) [7]: ~4 h | clofoctol concentration in the lungs (female C57BL/6 mice, single i.p. dose 62.5 mg/kg, 30 min after injection): up to 61 μM | IC95 measured in vitro (SARS-CoV-2 [4]): ~10 µM | viral load by RT-qPCR (SARS-COV-2 [5]; female mice treated during the first 2 days, day 4 post-inoculation): decrease in viral load | viral RNA yields in lungs by RT-qPCR (SARS-COV-2 [5]; female mice, 62.5 mg/kg i.p., day 2 post-infection): reduced viral load | expression of transcripts encoding IL-6, TNFα, IL12p40, IFNβ, IFNγ and ISG Mx1, Ifi44, ISG15 in lungs (SARS-COV-2 [5]; female mice, 62.5 mg/kg i.p., day 2 post-infection, RT-qPCR): markedly reduced | reduction of infectious viral load in the lungs vs vehicle (SARS-COV-2 [5]; female mice, 62.5 mg/kg i.p., day 2 post-infection, titration on Vero-81 cells): more than 1.1 log10 | expression of transcripts encoding inflammatory markers (SARS-COV-2 [5]; [8]): strongly decreased | lung pathology (histology) (SARS-COV-2 [5]; [8]): only a minimal interstitial inflammation | inflammatory score of lung sections (SARS-COV-2 [5]; female mice, day 4 post-infection, blinded scoring): reduces the inflammatory score | infection-induced drop of Ocln and ZO1 transcript levels (epithelial barrier markers) (SARS-COV-2 [5]; female mice, day 4 post-infection, lungs): significantly reduced | lung fibrosis (Red Sirius staining) ([6]; 28 days post-infection): tended to develop less fibrosis | body weight ([6]; IAV-infected mice): reduces body weight

Reference: US20240238217A1, “USE OF CLOFOCTOL FOR THE TREATMENT OF INFLAMMATION” (INSTITUT NATIONAL DE LA SANTÉ ET DE LA RECHERCHE MÉDICALE, priority 2021, published 2024)
